Type in all cases: biochemical
For one experiment, the target named is T1, MMP-1 (Homo sapiens, UniProt P03956).
T1 construct: purchased R&D Systems 901-MP
T1 sequence (P03956 100-469): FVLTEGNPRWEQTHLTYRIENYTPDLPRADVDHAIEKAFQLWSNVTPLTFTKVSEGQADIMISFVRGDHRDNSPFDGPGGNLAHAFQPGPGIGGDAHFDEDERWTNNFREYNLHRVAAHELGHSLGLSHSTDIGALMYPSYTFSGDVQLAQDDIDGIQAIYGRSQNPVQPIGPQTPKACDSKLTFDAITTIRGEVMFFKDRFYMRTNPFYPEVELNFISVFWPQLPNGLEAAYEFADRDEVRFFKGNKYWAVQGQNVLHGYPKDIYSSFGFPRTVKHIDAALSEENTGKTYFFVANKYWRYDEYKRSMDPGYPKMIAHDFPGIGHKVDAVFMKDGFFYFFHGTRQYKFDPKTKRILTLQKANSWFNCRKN
Kind of experiment: In vitro MMP-1 inhibition test. From the text:
(§1) The MMP-mediated amidolytic cleavage of a suitable peptide substrate leads to an increase in fluorescent light here too. The signal intensity of the fluorescent light is directly proportional to the enzyme activity. The active concentration of a test compound at which half the enzyme is inhibited (50% signal intensity of the fluorescent light) is reported as the […].
(§2) Recombinant MMP-1 (from R&D Systems, 901-MP) is chemically activated in accordance with the manufacturer's instructions using APMA. 1 μl of the test compound to be analysed (as a solution in DMSO, suitable concentrations, for example, 1 nM to 30 μM) is pipetted into 24 μl of activated enzyme (final concentration, for example, 2 nM) in reaction buffer (50 mM Tris/HCl pH 7.5, 10 mM CaCl2, 150 mM NaCl, 0.05% Brij®-35) in a white 384-hole microtiter plate (MTP). The enzymatic reaction is started by adding the intramolecularly quenched Mca-Pro-Leu-Gly-Leu-Dpa(Dnp)-Ala-Arg-NH2 substrate (final concentration, for example, 10 μM; R&D Systems, ES-001), so as to result in a total test volume of 50 μl. The course of the MMP-1 reaction is measured by measuring the fluorescence intensity (excitation 320 nm, emission 410 nm) over a suitable period of time (for example over 120 min at a temperature of 32° C.).

In another experiment the target is T2, mouse MMP-2 (Mus musculus, UniProt P33434).
T2 construct: purchased R&D Systems 924-MP
T2 sequence (P33434 110-662): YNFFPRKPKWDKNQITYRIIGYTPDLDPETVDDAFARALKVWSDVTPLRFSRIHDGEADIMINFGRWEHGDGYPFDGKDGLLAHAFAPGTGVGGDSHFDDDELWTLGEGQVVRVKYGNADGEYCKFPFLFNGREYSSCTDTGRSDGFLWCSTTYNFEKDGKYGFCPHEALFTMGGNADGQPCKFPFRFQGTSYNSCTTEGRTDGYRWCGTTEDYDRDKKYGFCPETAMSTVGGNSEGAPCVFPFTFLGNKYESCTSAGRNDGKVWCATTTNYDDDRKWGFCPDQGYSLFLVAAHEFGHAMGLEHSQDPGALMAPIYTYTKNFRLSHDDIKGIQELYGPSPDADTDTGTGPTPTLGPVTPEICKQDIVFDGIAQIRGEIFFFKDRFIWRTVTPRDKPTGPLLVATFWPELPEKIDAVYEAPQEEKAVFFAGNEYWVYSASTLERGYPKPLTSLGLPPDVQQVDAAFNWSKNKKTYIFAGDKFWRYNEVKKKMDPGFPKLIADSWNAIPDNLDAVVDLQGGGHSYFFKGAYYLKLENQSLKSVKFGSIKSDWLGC
Kind of experiment: In vitro mouse MMP-2 inhibition test.
From the text: as §1
as §2, with “Recombinant mouse MMP-2” for “Recombinant MMP-1”, “Systems, 924-MP)” for “Systems, 901-MP)”, “example, 0.1” for “example, 2”, “the MMP-2” for “the MMP-1”

The target in another experiment is T3, MMP-8 (Homo sapiens, UniProt P22894).
T3 construct: purchased R&D Systems 908-MP
T3 sequence (P22894 101-467): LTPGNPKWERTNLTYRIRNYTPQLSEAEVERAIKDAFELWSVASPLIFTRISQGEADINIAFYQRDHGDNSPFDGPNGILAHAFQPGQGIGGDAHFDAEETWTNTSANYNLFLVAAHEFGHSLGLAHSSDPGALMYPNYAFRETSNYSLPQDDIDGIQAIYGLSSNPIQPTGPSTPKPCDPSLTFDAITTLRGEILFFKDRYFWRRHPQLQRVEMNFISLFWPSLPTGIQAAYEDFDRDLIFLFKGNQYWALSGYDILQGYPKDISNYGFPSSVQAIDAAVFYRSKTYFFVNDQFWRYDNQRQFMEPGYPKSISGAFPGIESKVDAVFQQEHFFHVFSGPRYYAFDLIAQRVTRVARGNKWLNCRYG
Kind of experiment: In vitro MMP-8 inhibition test.
From the text: as §1
as §2, with “Recombinant MMP-8” for “Recombinant MMP-1”, “Systems, 908-MP)” for “Systems, 901-MP)”, “example, 0.5” for “example, 2”, “the MMP-8” for “the MMP-1”

Another experiment has as its target T4, MMP-9 (Homo sapiens, UniProt P14780).
T4 construct: purchased R&D Systems 911-MP
Kind of experiment: In vitro MMP-9 inhibition test.

In the next experiment the target is T5, MMP-3 (Homo sapiens, UniProt P08254).
T5 construct: purchased R&D Systems 513-MP
T5 sequence (P08254 100-477): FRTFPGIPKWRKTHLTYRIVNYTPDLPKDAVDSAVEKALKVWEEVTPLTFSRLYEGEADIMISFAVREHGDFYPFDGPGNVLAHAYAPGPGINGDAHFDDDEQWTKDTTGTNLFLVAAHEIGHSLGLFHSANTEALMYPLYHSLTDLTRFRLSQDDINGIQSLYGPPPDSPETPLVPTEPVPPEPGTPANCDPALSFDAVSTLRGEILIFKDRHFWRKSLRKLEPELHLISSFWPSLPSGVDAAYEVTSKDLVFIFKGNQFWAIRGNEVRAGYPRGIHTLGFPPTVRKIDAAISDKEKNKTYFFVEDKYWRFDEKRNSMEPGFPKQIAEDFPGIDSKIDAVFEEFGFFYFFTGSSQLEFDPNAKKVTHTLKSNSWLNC
Kind of experiment: In vitro MMP-3 inhibition test.
From the text: as §1
as §2, with “MMP-3” for “MMP-1”, “513-MP)” for “901-MP)”, “Mca-Arg-Pro-Lys-Pro-Val-Glu-Nval-Trp-Arg-Lys(Dnp)-NH2” for “Mca-Pro-Leu-Gly-Leu-Dpa(Dnp)-Ala-Arg-NH2”, “ES-002),” for “ES-001),”

For four compounds, IC50 results are on record in patent US20170114049A1, “2,5-DISUBSTITUTED CYCLOPENTANE CARBOXYLIC ACIDS FOR THE TREATMENT OF RESPIRATORY TRACT DISEASES” (BAYER PHARMA AKTIENGESELLSCHAFT, priority 2014, published 2017).

T4 sequence (P14780 107-707 limits assumed): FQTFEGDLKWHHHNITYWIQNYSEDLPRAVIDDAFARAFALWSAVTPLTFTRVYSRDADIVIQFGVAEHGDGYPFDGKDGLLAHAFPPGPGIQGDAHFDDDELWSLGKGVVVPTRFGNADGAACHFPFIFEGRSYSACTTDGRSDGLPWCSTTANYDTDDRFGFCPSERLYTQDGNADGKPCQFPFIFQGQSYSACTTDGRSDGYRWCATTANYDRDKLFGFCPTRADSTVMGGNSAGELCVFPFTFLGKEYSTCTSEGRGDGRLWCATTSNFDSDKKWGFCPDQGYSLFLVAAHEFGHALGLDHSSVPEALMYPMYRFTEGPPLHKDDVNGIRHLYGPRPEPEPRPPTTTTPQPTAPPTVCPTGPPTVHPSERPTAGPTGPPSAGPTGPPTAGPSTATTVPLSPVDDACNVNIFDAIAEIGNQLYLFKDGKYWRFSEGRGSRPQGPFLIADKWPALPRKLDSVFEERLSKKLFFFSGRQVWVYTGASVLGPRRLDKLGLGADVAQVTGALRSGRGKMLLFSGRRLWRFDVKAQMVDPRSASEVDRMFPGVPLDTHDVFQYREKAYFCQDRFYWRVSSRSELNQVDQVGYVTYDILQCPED

For the compound `O=C(O)[C@H]1[C@H](Cn2nnc3ccccc3c2=O)CC[C@@H]1C(=O)c1ccc(OCC2CCOCC2)cc1` (stereo in doubt) [Example 1, (+/−)-(1RS,2SR,5RS)-2-[(4-Oxo-1,2,3-benzotriazin-3(4H)-yl)methyl]-5-[4-(tetrahydro-2H-pyran-4-ylmethoxy)benzoyl]cyclopentanecarboxylic acid], the IC50 against MMP-1 was found to be 26000 nM; against mouse MMP-2 it was 170 nM; on MMP-8 it was 11 nM; against MMP-9, 450 nM; against MMP-3, 1100 nM.

For the compound `O=C(O)[C@H]1[C@H](Cn2nnc3ccc(C(F)(F)F)cc3c2=O)CC[C@@H]1C(=O)c1ccc(OCCC2CCOCC2)cc1` (stereo in doubt) [Example 10, (+/−)-(1RS ,2S R,5RS)-2-{[4-Oxo-6-(trifluoromethyl)-1,2,3-benzotriazin-3(4H)-yl]methyl}-5-{4-[2-(tetrahydro-2H-pyran-4-yl)ethoxy]benzoyl}cyclopentanecarboxylic acid], the IC50 against MMP-1 stood at 8800 nM; against mouse MMP-2 it was 300 nM; against MMP-8, 3.9 nM; against MMP-9, 310 nM; at MMP-3, 120 nM.

On to `Cc1ccc2nnn(C[C@H]3CC[C@@H](C(=O)c4ccc(OCCC5CCOCC5)cc4)[C@@H]3C(=O)O)c(=O)c2c1` (single isomer, unassigned) [Example 20, (+)-(1RS,2SR,5RS)-2-[(6-Methyl-4-oxo-1,2,3-benzotriazin-3(4H)-yl)methyl]-5-{4-[2-(tetrahydro-2H-pyran-4-yl)ethoxy]benzoyl}cyclopentanecarboxylic acid], for which the IC50 on MMP-1 was above 40000 nM; against mouse MMP-2 it was 340 nM; against MMP-8, 10 nM; at MMP-9, 370 nM; against MMP-3 it was 440 nM.

Consider `Cc1ccc2nnn(C[C@@H]3CC[C@H](C(=O)c4ccc(OCCC5CCOCC5)cc4)[C@H]3C(=O)O)c(=O)c2c1` (racemic) [Example 19, (+/−)-(1RS,2SR,5RS)-2-[(6-Methyl-4-oxo-1,2,3-benzotriazin-3(4H)-yl)methyl]-5-{4-[2-(letrahydro-2H-pyran-4-yl)ethoxy]benzoyl}cyclopentanecarboxylic acid], for which the 50% inhibitory concentration (IC50) against MMP-1 was above 40000 nM; against mouse MMP-2 it was 840 nM; against MMP-8 it was 28 nM; on MMP-9 it was 960 nM; at MMP-3, 1400 nM.
